1 compound from US11229599B2, “Implant compositions for the unidirectional delivery of therapeutic compounds to the brain” (Board of Regents, the University of Texas System, priority 2015, dated 2022) can be followed below.

This data set is described as follows: Differential scanning calorimetry, physical state of APAP in glycerol behenate. The data set is classed as physicochemical. To be noted: FIG. 6; 5% APAP+95% glycerol behenate, physical blend and melt mix. As for the experimental part: Differential scanning calorimetry testing was performed using a TA Thermal Analyzer (Model DSC Q20, TA Instruments, New Castle, Del., US). The temperature was calibrated with an indium standard. Sample size was about 5 mg and a temperature ramp of 10° C. per minute was used. Universal Analysis 2000 data analysis software was used for data analysis. Inflection point method was used for the analysis of the glass transition temperature. The melting temperature is defined as the intersection of the extension of the baseline with the tangent at the inflection point of the curve.

For the compound `CC(=O)Nc1ccc(O)cc1` [APAP, acetaminophen], the “physical state of APAP in glycerol behenate” value is “dispersed as crystalline particles”.
